Tested on: steatosis-induced Huh-7 cells
Assay: Expression of fat-oxidation promoting proteins (western blot) compared to existing developed materials
Assay type: cell-based
Conditions: 250 μM PA, BW-3290 0.5, 2.5, 10 μM vs comparators 1 and 10 μM, 24 hours, FIG. 4
Method: To induce steatosis in Huh-7 cells in each well except for control cells, the Huh-7 cells were treated with PA bound to 2% BSA at a concentration of 250 μM except for the control, and the control cells were pretreated with 2% BSA without FA.
The cells in each well were treated with the compounds of the present invention, BW-3290, 0.5 μM, 2.5 μM, and 10 μM, PF-06409577 1 μM and 10 μM, and elafibranor 1 μM and 10 μM, respectively and then cultured for 24 hours. The control cells and PA treated cells were treated with DMSO. All media were aspirated and the cells were gently washed 3 times with cold PBS.
A cold lysis buffer containing 150 mM sodium chloride (NaCl), 5 mM ethylenediaminetetraacetic acid (EDTA), pH 8.0, […] 4-(2-hydroxyethyl)-1-piperazineethanesulfonic acid (HEPES), 1% nonylphenoxypolyethoxylethanol (NP-40), aprotinin (2 μg/mL), 1 μM pepstatin A, 10 μM leupeptin, 1 mM sodium fluoride (NaF), 0.2 mM sodium orthovanadate ([…]), and 1 μM phenylmethylsulfonyl fluoride (PMSF) was added thereto.
A whole cell lysate was collected and gently pipetted at least 10 times to ensure complete lysis. The sample was incubated on ice for 20 minutes and centrifuged 4° C. at 13,000 rpm, for 20 minutes. […]
Images were acquired using an ImageQuant LAS 3000 (Fujifilm, Tokyo, Japan). Data were analyzed.

CC(C)C(Nc1ncnc2nc[nH]c12)c1nc2cccc(Cl)c2c(=O)n1-c1ccccc1 (centres unmarked) [BW-3290, 2-(1-((7H-purin-6-yl)amino)-2-methylpropyl)-5-chloro-3-phenylquinazolin-4(3H)-one]
expression of LCAD (fatty acid oxidation-related protein) compared to PF-064099577 and elafibranor: same or higher effect of fatty acid degradation
p-ACC expression (inhibition of fat accumulation) compared to PF-064099577 and elafibranor: same or higher effect of inhibiting fat accumulation

Reference: patent publication US20230097253A1, “NOVEL QUINAZOLINE COMPOUND AS THERAPEUTIC AGENT FOR METABOLIC DISORDERS” (BIOWAY., INC, priority 2020, published 2023)
